According to ChEMBL document CHEMBL1153885, “Design, synthesis and evaluation of novel uracil acetamide derivatives as potential inhibitors of Plasmodium falciparum dUTP nucleotidohydrolase” (Eur J Med Chem, 2009):

Legend:
dUTP pyrophosphatase = target: T1, dUTP pyrophosphatase (Plasmodium falciparum 3D7, UniProt Q8II92); assay: Inhibition of Plasmodium falciparum dUTPase
T1 sequence (Q8II92 whole entry): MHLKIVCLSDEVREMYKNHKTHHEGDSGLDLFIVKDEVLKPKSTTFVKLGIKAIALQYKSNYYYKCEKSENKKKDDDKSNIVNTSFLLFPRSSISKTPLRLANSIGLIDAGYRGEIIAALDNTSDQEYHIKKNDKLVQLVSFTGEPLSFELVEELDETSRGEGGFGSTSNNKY

[1] = target: T2, Deoxyuridine 5'-triphosphate nucleotidohydrolase, mitochondrial (Homo sapiens, UniProt P33316); assay: Inhibition of human dUTPase
T2 sequence (P33316 whole entry): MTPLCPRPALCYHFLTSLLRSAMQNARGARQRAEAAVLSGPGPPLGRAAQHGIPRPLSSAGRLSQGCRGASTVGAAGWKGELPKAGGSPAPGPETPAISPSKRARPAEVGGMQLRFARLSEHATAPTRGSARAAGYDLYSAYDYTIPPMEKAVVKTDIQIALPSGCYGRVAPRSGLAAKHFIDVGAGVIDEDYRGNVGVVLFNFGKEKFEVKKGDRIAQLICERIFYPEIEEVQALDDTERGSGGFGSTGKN

[2] = Selectivity ratio of human dUTPase to Plasmodium falciparum dUTPase
Plasmodium falciparum = assay: Antiplasmodial activity against chloroquine-resistant Plasmodium falciparum K1 infected erythrocytes; format: functional, organism-based
L6 = assay: Cytotoxicity against rat L6 cells; format: cell-based

For O=C(Cn1ccc(=O)[nH]c1=O)NCCNC(c1ccccc1)(c1ccccc1)c1ccccc1, the Ki (dUTP pyrophosphatase) was 37.3 µM, the Ki [1] was > 1000 µM and the Selectivity Index [2] was > 26. For the same compound, the IC50 (Plasmodium falciparum) was 4.2 µM and the Activity (L6) was 53 µM.
For O=C(Cn1ccc(=O)[nH]c1=O)NCCCNCCCNC(c1ccccc1)(c1ccccc1)c1ccccc1, the Ki (dUTP pyrophosphatase) was > 1000 µM, the Ki [1] was > 1000 µM and the Selectivity Index [2] was > 1. For the same compound, the IC50 (Plasmodium falciparum) was 3.9 µM and the Activity (L6) was 76.7 µM.
In the case of O=C(Cn1ccc(=O)[nH]c1=O)N(CCO)CCNC(c1ccccc1)(c1ccccc1)c1ccccc1, the Ki (dUTP pyrophosphatase) is reported as > 1000 µM, the Ki [1] is reported as > 1000 µM and the Selectivity Index [2] is reported as > 1. For the same compound, the IC50 (Plasmodium falciparum) was > 83 µM and the Activity (L6) was > 373 µM.
In the case of CC(C)(C)[Si](NCCCCCCn1ccc(=O)[nH]c1=O)(c1ccccc1)c1ccccc1, the Ki (dUTP pyrophosphatase) is reported as 8.5 µM, the Ki [1] is reported as > 1000 µM and the Selectivity Index [2] is reported as > 117. The IC50 (Plasmodium falciparum) was 3.9 µM and the Activity (L6) was 18 µM.
For O=C(Cn1ccc(=O)[nH]c1=O)NCCCNC(c1ccccc1)(c1ccccc1)c1ccccc1, the Ki (dUTP pyrophosphatase) was 23.1 µM, the Ki [1] was > 1000 µM and the Selectivity Index [2] was > 43. For the same compound, the IC50 (Plasmodium falciparum) was 2.5 µM and the Activity (L6) was 102.2 µM.
With CC(C)(C)[Si](OCCCNC(=O)Cn1ccc(=O)[nH]c1=O)(c1ccccc1)c1ccccc1 the Ki (dUTP pyrophosphatase) was > 1000 µM, the Ki [1] was > 1000 µM and the Selectivity Index [2] was > 1. The IC50 (Plasmodium falciparum) was 4.6 µM and the Activity (L6) was 88.9 µM.
With O=c1ccn(CCCCCNC(c2ccccc2)(c2ccccc2)c2ccccc2)c(=O)[nH]1 the Selectivity Index [2] was > 232 and the Activity (L6) was 39 µM.
With O=C(Cn1ccc(=O)[nH]c1=O)NCCCCNC(c1ccccc1)(c1ccccc1)c1ccccc1 the Ki (dUTP pyrophosphatase) was > 1000 µM, the Ki [1] was > 1000 µM and the Selectivity Index [2] was > 1. The IC50 (Plasmodium falciparum) was 2.9 µM and the Activity (L6) was 42.7 µM.
For O=C(Cn1ccc(=O)[nH]c1=O)NCCNCCNC(c1ccccc1)(c1ccccc1)c1ccccc1, the Ki (dUTP pyrophosphatase) was > 1000 µM, the Ki [1] was > 1000 µM and the Selectivity Index [2] was > 1. For the same compound, the IC50 (Plasmodium falciparum) was 4.5 µM and the Activity (L6) was 52.7 µM.
With CC(C)(C)[Si](OCCCCNC(=O)Cn1ccc(=O)[nH]c1=O)(c1ccccc1)c1ccccc1 the Ki (dUTP pyrophosphatase) was > 1000 µM, the Ki [1] was > 1000 µM and the Selectivity Index [2] was > 1. The IC50 (Plasmodium falciparum) was 3.7 µM and the Activity (L6) was 33.4 µM.
With O=c1ccn(CCCCCCNC(c2ccccc2)(c2ccccc2)c2ccccc2)c(=O)[nH]1 the Selectivity Index [2] was > 555 and the Activity (L6) was 40 µM.
